Patent US10993951B2, “Fosfomycin formulation for parenteral administration” (priority 2016, dated 2021)
Values after ≈ are worked out from the molar mass of the structure shown. Where two headings read alike, the source gives them in different places.

Columns and labels:
Format in all cases: cell-based
[1] = test system: Staphylococcus hominis AG 1115; experiment: MIC by tube dilution in microtiter plates, stored fosfomycin solution; settings: read-out: minimal inhibitory concentration (MIC)
Source text: (§1) The objective of the present investigation was to find out whether the antimicrobial activity of fosfomycin with a pH suitable for intravenous administration is maintained in a solvent suitable for intravenous use. For this, fosfomycin disodium (14.5 mmol sodium/g) and succinic acid were used to adjust the pH (0.025 grams of succinic acid per gram of fosfomycin).
(§2) A stock solution of 4 g of fosfomycin disodium and succinic acid (0.025 grams of succinic acid per gram of fosfomycin, corresponding to about 3 g of fosfomycin) in 10 ml distilled water was prepared and divided into 5 cryotubes at 2 ml each, and the solution was exposed at different temperatures as follows:
(§3) Aliquots of 2 ml of the sample were stored at −80° C., at refrigerator temperature (2-8° C.), at room temperature (20-25° C.), and at 45-65° C. until the test end. Another 2 ml of the stock solution were stored at refrigerator temperature (2-8° C.) and autoclaved before the tests at 125° C. for 30 minutes. After that, all samples were tested for their antimicrobioal activity.
(§4) To determine the antimicrobial activity of fosfomycin, the minimal inhibitory concentration (MIC) of the 4 mentioned bacteria strains was determined by a tube dilution method in microtiter plates using Mueller-Hinton broth. For the inoculation of the microtiter plates, the inoculum was adjusted to 1.5×104 germs/ml. The evaluation was made after 24 hours of incubation at 37° C.
(§5) Samples were taken, starting with 2,000 μg/ml test substance, diluted by a factor 2. Serial dilutions of 2,000 μg/ml to […] were prepared.

[2] = test system: Staphylococcus aureus ATTC 33592; experiment: as above; settings: read-out: minimal inhibitory concentration (MIC)
Source text: as §1, §2, §3, §4, §5

[3] = test system: Staphylococcus aureus ATTC 49775; experiment: as above; settings: read-out: minimal inhibitory concentration (MIC)
[4] = test system: Staphylococcus hominis AG 1115; experiment: as above; settings: read-out: minimal inhibitory concentration (MIC); remark: listed apart in the source
[5] = test system: Escherichia coli AG 1215; experiment: as above; settings: read-out: minimal inhibitory concentration (MIC)
[6] = test system: tested bacteria such as Staphylococcus and Escherichia; experiment: Stability studies: antimicrobial activity kept on storage; settings: aqueous solution with an acid; after repeated autoclaving at 125° C. and months of storage
Source text: as §1, §2, §3
as §4, with “The evaluation was made after 24 hours of incubation at 37° C.” left out

[7] = test system: Staphylococcus aureus ATTC 33592; experiment: MIC by tube dilution in microtiter plates, stored fosfomycin solution; settings: read-out: minimal inhibitory concentration (MIC); remark: listed apart in the source

For C[C@@H]1O[C@@H]1P(=O)(O)O [Fosfomycin, fosfomycin], which MIC ([1]; AG1115, 648 h, storage temp. 20-25 °C, storage period 27 days) is on record?
The MIC was 31.2 µg/mL (≈ 226 µM).

And the MIC ([1]; AG1115, 648 h, storage temp. 45-65 °C, storage period 27 days)?
Its MIC is 15.6 µg/mL (≈ 113 µM).

What about the MIC ([1]; AG1115, 648 h, storage temp. −80 °C, storage period 27 days) of the same compound?
The MIC was 7.8 µg/mL (≈ 56.5 µM).

And the MIC ([1]; AG1115, storage temp. 4-8 °C, storage period 31 days)?
Its MIC is 7.8 µg/mL (≈ 56.5 µM).

And the MIC ([1]; AG1115, storage temp. 4-8 °C, storage period 54 days)?
The MIC was 7.8 µg/mL (≈ 56.5 µM).

What about the MIC ([1]; AG1115, storage temp. 4-8 °C, storage period 59 days) of the same compound?
The MIC was 15.6 µg/mL (≈ 113 µM).

And the MIC ([1]; AG1115, storage temp. 20-25 °C, storage period 31 days)?
Its MIC is 7.8 µg/mL (≈ 56.5 µM).

What about the MIC ([1]; AG1115, storage temp. 20-25 °C, storage period 54 days) of the same compound?
Its MIC is 15.6 µg/mL (≈ 113 µM).

And the MIC ([1]; AG1115, storage temp. 20-25 °C, storage period 59 days)?
Its MIC is 7.8 µg/mL (≈ 56.5 µM).

And the MIC ([1]; AG1115, storage temp. 20-25 °C, storage period 64 days)?
Its MIC is 31.2 µg/mL (≈ 226 µM).

And the MIC ([1]; AG1115, storage temp. 20-25 °C, storage period 92 days)?
Its MIC is 62.5 µg/mL (≈ 453 µM).

What about the MIC ([1]; AG1115, storage temp. 45-65 °C, storage period 31 days) of the same compound?
The MIC was 3.9 µg/mL (≈ 28.2 µM).

What about the MIC ([1]; AG1115, storage temp. 45-65 °C, storage period 54 days) of the same compound?
The MIC was 15.6 µg/mL (≈ 113 µM).

And the MIC ([1]; AG1115, storage temp. 45-65 °C, storage period 59 days)?
The MIC was 15.6 µg/mL (≈ 113 µM).

What about the MIC ([1]; AG1115, storage temp. 45-65 °C, storage period 64 days) of the same compound?
The MIC was 15.6 µg/mL (≈ 113 µM).

What about the MIC ([1]; AG1115, storage temp. 45-65 °C, storage period 92 days) of the same compound?
The MIC was 62.5 µg/mL (≈ 453 µM).

And the MIC ([1]; AG1115, storage temp. −80 °C, storage period 31 days)?
The MIC was 7.8 µg/mL (≈ 56.5 µM).

And the MIC ([1]; AG1115, storage temp. −80 °C, storage period 54 days)?
Its MIC is 7.8 µg/mL (≈ 56.5 µM).

What about the MIC ([1]; AG1115, storage temp. −80 °C, storage period 59 days) of the same compound?
The MIC was 15.6 µg/mL (≈ 113 µM).

And the MIC ([1]; AG1115, storage temp. −80 °C, storage period 64 days)?
The MIC was 15.6 µg/mL (≈ 113 µM).

And the MIC ([1]; AG1115, storage temp. −80 °C, storage period 92 days)?
Its MIC is 15.6 µg/mL (≈ 113 µM).

What about the MIC ([2]; ATTC33592, 0 h, storage temp. 20-25 °C, storage period 0 days) of the same compound?
The MIC was 7.8 µg/mL (≈ 56.5 µM).

What about the MIC ([2]; ATTC33592, 0 h, storage temp. 45-65 °C, storage period 0 days) of the same compound?
The MIC was 15.6 µg/mL (≈ 113 µM).

And the MIC ([2]; ATTC33592, 0 h, storage temp. −80 °C, storage period 0 days)?
Its MIC is 15.6 µg/mL (≈ 113 µM).

What about the MIC ([2]; ATTC33592, 125 °C (refrigerator storage, autoclaved 30 minutes before tests), storage period 0 days) of the same compound?
Its MIC is 15.6 µg/mL (≈ 113 µM).

What about the MIC ([2]; ATTC33592, 125 °C (refrigerator storage, autoclaved 30 minutes before tests), storage period 19 days) of the same compound?
Its MIC is 31.2 µg/mL (≈ 226 µM).

And the MIC ([2]; ATTC33592, 125 °C (refrigerator storage, autoclaved 30 minutes before tests), storage period 31 days)?
The MIC was 7.8 µg/mL (≈ 56.5 µM).

And the MIC ([2]; ATTC33592, 456 h, storage temp. 20-25 °C, storage period 19 days)?
The MIC was 15.6 µg/mL (≈ 113 µM).

What about the MIC ([2]; ATTC33592, 456 h, storage temp. 45-65 °C, storage period 19 days) of the same compound?
The MIC was 31.2 µg/mL (≈ 226 µM).

What about the MIC ([2]; ATTC33592, 456 h, storage temp. −80 °C, storage period 19 days) of the same compound?
The MIC was 7.8 µg/mL (≈ 56.5 µM).

What about the MIC ([2]; ATTC33592, storage temp. 20-25 °C, storage period 31 days) of the same compound?
Its MIC is 7.8 µg/mL (≈ 56.5 µM).

And the MIC ([2]; ATTC33592, storage temp. 45-65 °C, storage period 31 days)?
Its MIC is 7.8 µg/mL (≈ 56.5 µM).

And the MIC ([2]; ATTC33592, storage temp. −80 °C, storage period 31 days)?
The MIC was 7.8 µg/mL (≈ 56.5 µM).

And the MIC ([3]; ATTC49775, 0 h, storage temp. 4-8 °C, storage period 0 days)?
The MIC was 7.8 µg/mL (≈ 56.5 µM).

What about the MIC ([3]; ATTC49775, 456 h, storage temp. 4-8 °C, storage period 19 days) of the same compound?
Its MIC is 3.9 µg/mL (≈ 28.2 µM).

And the MIC ([3]; ATTC49775, storage temp. 4-8 °C, storage period 31 days)?
Its MIC is 3.9 µg/mL (≈ 28.2 µM).

And the MIC ([4]; AG1115, 648 h, storage temp. 4-8 °C, storage period 27 days)?
Its MIC is 15.6 µg/mL (≈ 113 µM).

What about the MIC ([4]; AG1115, storage temp. 4-8 °C, storage period 64 days) of the same compound?
Its MIC is 15.6 µg/mL (≈ 113 µM).

What about the MIC ([4]; AG1115, storage temp. 4-8 °C, storage period 92 days) of the same compound?
The MIC was 15.6 µg/mL (≈ 113 µM).

And the MIC ([5]; AG1215, 648 h, storage temp. 4-8 °C, storage period 27 days)?
The MIC was 62.5 µg/mL (≈ 453 µM).

And the MIC ([5]; AG1215, storage temp. 4-8 °C, storage period 59 days)?
Its MIC is 62.5 µg/mL (≈ 453 µM).

What about the MIC ([5]; AG1215, storage temp. 4-8 °C, storage period 64 days) of the same compound?
The MIC was 15.6 µg/mL (≈ 113 µM).

What about the “effectiveness against the tested bacteria after storage” value [6] of the same compound?
The value was “effective”.

And the MIC ([7]; ATTC33592, 0 h, storage temp. 4-8 °C, storage period 0 days)?
The MIC was 15.6 µg/mL (≈ 113 µM).

And the MIC ([7]; ATTC33592, 456 h, storage temp. 4-8 °C, storage period 19 days)?
The MIC was 7.8 µg/mL (≈ 56.5 µM).

And the MIC ([7]; ATTC33592, storage temp. 4-8 °C, storage period 31 days)?
The MIC was 3.9 µg/mL (≈ 28.2 µM).
